Measurements as given in patent publication US20100120810A1, “COMPOUNDS AND METHODS FOR MODULATING RHO GTPASES” (priority 2007, published 2010).
Counter-ions that a name gives are not always drawn. Like-named read-outs stand apart in the source and are kept apart here.

How the values were obtained:
Format in all cases: biochemical
[1] = target: T1, Rac1 activated by DH/PH domain of Guanine nucleotide Exchange Factor Tiam1 (Rac1/Tiam1) (Homo sapiens, UniProt P63000); assay: Nucleotide binding assay: BODIPY-GTP binding to Rac1 activated by Tiam1 DH/PH; conditions: for inhibition at 50 µM: read-out: Rac1 % inhibition of BODIPY-GTP binding
T1 construct: made in house; host or cells: E. coli BL21 Codon+RIL
Method: (§1) Fluorescence of GTP analog BODIPY-GTP increases when it binds to small G proteins. This property was used to assess ability of compounds to inhibit nucleotide binding to Rac1, Rac1b and Cdc42. 2 μM GST-Rac1 and 6 μg His6-Tiam1-DH/PH were diluted in a buffer containing 20 mM Tris, 50 mM NaCl, and 1 mM MgCl2. This mixture was loaded in a 96-well plate. Fluorescence recording were started (λEx: 485 nm; λEm: 538 nm) using a spectrofluorimeter (Fluoroskan; Thermolab Systems). Assay was initiated by the addition of 2 μM BODIPY-GTP with or without various doses of test compound. Fluorescence values were recorded, and data were processed as follows: background fluorescence (unbound BODIPY-GTP) was retrieved from fluorescence values.
(§2) This assay allows determining whether compounds can inhibit the binding of a fluorescent nucleotide to recombinant small G proteins of interest. The effect of various alkaloid compounds on binding of BODIPY-GTP to Rac1 activated by DH/PH domain of Guanine nucleotide Exchange Factor Tiam1 (Rac1/Tiam1), Rac1b and Cdc42 is described below.

[2] = target: T2, Rac1b (Homo sapiens, UniProt P63000); assay: Nucleotide binding assay: BODIPY-GTP binding to Rac1b; conditions: for inhibition at 50 µM: read-out: Rac1b % inhibition of BODIPY-GTP binding
T2 construct: GST (N); made in house; host or cells: E. coli BL21 Codon+RIL
Method: as §1, §2

[3] = target: T3, Cdc42 (Homo sapiens, UniProt P60953); assay: Nucleotide binding assay: BODIPY-GTP binding to Cdc42; conditions: read-out: Cdc42 % inhibition of BODIPY-GTP binding
T3 construct: GST (N); made in house; host or cells: E. coli BL21 Codon+RIL
Method: as §1, §2

[4] = final concentration of 50 μM, Rac1/Tiam1
[5] = dose-response study (1-2-5-10-25-50-75-100 μM)

T3 sequence (P60953 whole entry, species assumed): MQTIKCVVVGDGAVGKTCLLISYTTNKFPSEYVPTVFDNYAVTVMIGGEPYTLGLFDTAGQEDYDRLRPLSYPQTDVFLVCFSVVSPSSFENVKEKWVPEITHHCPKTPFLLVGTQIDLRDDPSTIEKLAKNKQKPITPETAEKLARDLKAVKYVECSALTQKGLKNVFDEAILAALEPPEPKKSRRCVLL

SMILES: COc1ccc2c(c1OC)CN1CCc3cc4c(cc3C1C2)OCO4 (racemic) [Compound 3, (±)-Canadine hydrochloride]
- inhibition at 50 µM [1]: 1 ± 3%
- inhibition at 50 µM [2]: -7 ± 4%

SMILES: COc1ccc2c(c1OC)C[N+]1(Cc3ccccc3)CCc3cc4c(cc3C1C2)OCO4 (racemic) [Compound 5, (±)-7-benzyl-9,10-dimethoxy-5,8,13,13a-tetrahydro-6H-[1,3]dioxolo[4,5-g]isoquino[3,2-a]isoquinolinylium bromide]
- inhibition at 50 µM [1, 4]: 9 ± 2%
- inhibition at 50 µM ([2]; final concentration of 50 μM): 16 ± 2%
- inhibition at 50 µM ([3]; final concentration of 50 μM): 3 ± 1%

SMILES: COc1ccc2c(c1OC)C(Cc1ccccc1)N1CCc3cc4c(cc3C1C2)OCO4 (racemic) [Compound 12, (±)-8-Benzyl-9,10-dimethoxy-5,8,13,13a-tetrahydro-6H-[1,3]dioxolo[4,5-g]isoquino[3,2-a]isoquinoline hydrochloride]
- inhibition at 50 µM [1, 4]: 23 ± 3%
- inhibition at 50 µM ([2]; final concentration of 50 μM): 31 ± 4%
- inhibition at 50 µM ([3]; final concentration of 50 μM): 9 ± 2%

SMILES: COc1ccc2c(c1OC)CN1CCc3cc(O)c(O)cc3C1C2 (racemic) [Compound 17, (±)-9,10-Dimethoxy-5,8,13,13a-tetrahydro-6H-isoquino[3,2-a]isoquinoline-2,3-diol hydrochloride]
- inhibition at 50 µM [1]: 5 ± 3%
- inhibition at 50 µM [2]: -7 ± 4%
- inhibition at 50 µM [3]: -13 ± 12%

SMILES: CCc1cc2c(cc1C1Cc3ccc(OC)c(OC)c3CN1C)OCO2 (racemic) [Compound 20, (±)-3-(6-Ethylbenzo[d][1,3]dioxol-5-yl)-7,8-dimethoxy-2-methyl-1,2,3,4-tetrahydroisoquinolinylium chloride]
- inhibition at 50 µM [1, 4]: 4 ± 4%
- inhibition at 50 µM ([2]; final concentration of 50 μM): -6 ± 10%
- inhibition at 50 µM ([3]; final concentration of 50 μM): 8 ± 3%

SMILES: COc1ccc2cc3[n+](cc2c1OC)CCc1cc2c(cc1-3)OCO2 [Compound 1, Berberine chloride, reference compound]
- maximum inhibition on Rac1/Tiam1 [1, 5]: 19±1%
- inhibition at 50 µM [1, 4]: 15 ± 2%
- maximum inhibition on Rac1b [2, 5]: 29±1%
- inhibition at 50 µM ([2]; final concentration of 50 μM): 23 ± 2%
- inhibition at 50 µM ([3]; final concentration of 50 μM): 8 ± 2%

SMILES: COc1cc2c(cc1OC)-c1cc3ccc(OC)c(OC)c3c[n+]1CC2 [Compound 2, palmatine chloride, hydrate, reference compound]
- inhibition at 50 µM [1]: 15 ± 2%
- inhibition at 50 µM [2]: 19 ± 3%
- inhibition at 50 µM ([3]; final concentration of 50 μM): 11 ± 2%

SMILES: Oc1cc2c(cc1O)-c1cc3ccc(O)c(O)c3c[n+]1CC2 [Compound 6, 5,6-dihydro-isoquino[3,2-a]isoquinolinylium-2,3,9,10-tetraol chloride]
- inhibition at 50 µM ([3]; final concentration of 50 μM): 100%

SMILES: COc1cc2c(cc1OC)CN(Cc1cccc(OC)c1OC)CC2 [Compound 7, 2-(2,3-Dimethoxybenzyl)-6,7-dimethoxy-1,2,3,4-tetrahydroisoquinoline hydrochloride]
- inhibition at 50 µM [1, 4]: 0%
- inhibition at 50 µM ([2]; final concentration of 50 μM): 6 ± 3%
- inhibition at 50 µM ([3]; final concentration of 50 μM): -1 ± 1%

SMILES: COc1cc2cc3c4cc(OC)c(OC)cc4cc[n+]3c(C)c2cc1OC [Compound 8, 8-methyl-2,3,10,11-tetramethoxydibenzo[a,g]quinolizinium chloride, hydrate, reference compound]
- inhibition at 50 µM [1]: 36 ± 4%
- inhibition at 50 µM [2]: 44 ± 4%
- inhibition at 50 µM [3]: 21 ± 2%

SMILES: COc1ccc(Cc2nccc3cc(OC)c(OC)cc23)cc1OC [Compound 9, 1-(3,4-dimethoxybenzyl)-6,7-dimethoxyisoquinoline hydrochloride, reference compound]
- inhibition at 50 µM [1]: 1 ± 2%
- inhibition at 50 µM [2]: 5 ± 2%
- inhibition at 50 µM [3]: 2 ± 2%

SMILES: COc1ccc2c(c1OC)C(c1ccccc1)N1CCc3cc4c(cc3C1=C2)OCO4 (stereo not drawn) [Compound 10, 9,10-dimethoxy-8-phenyl-5,8-dihydro-2H-6H-[1,3]dioxolo[4,5-g]isoquino[3,2-a]isoquinoline]
- inhibition at 50 µM [1, 4]: 18 ± 2%
- inhibition at 50 µM ([2]; final concentration of 50 μM): 27 ± 2%
- inhibition at 50 µM ([3]; final concentration of 50 μM): 17%

SMILES: COc1ccc2c(c1OC)C(Cc1ccccc1)N1CCc3cc4c(cc3C1=C2)OCO4 (stereo not drawn) [Compound 11, 8-benzyl-9,10-dimethoxy-5,8-dihydro-2H-6H-[1,3]dioxolo[4,5-g]isoquino[3,2-a]isoquinoline]
- inhibition at 50 µM [1, 4]: -1 ± 2%
- inhibition at 50 µM ([2]; final concentration of 50 μM): -2 ± 3%
- inhibition at 50 µM ([3]; final concentration of 50 μM): 1 ± 1%

SMILES: Cc1c2cc(O)c(O)cc2cc2c3cc(O)c(O)cc3cc[n+]12 [Compound 15, 8-Methyl-isoquino[3,2-a]isoquinolinylium-2,3,10,11-tetraol chloride]
- inhibition at 50 µM [1, 4]: 63 ± 4%
- IC50 ([2]; dose-response study): 13.2 ± 4.3 µM
- inhibition at 50 µM ([2]; final concentration of 50 μM): 72 ± 4%
- inhibition at 50 µM ([3]; final concentration of 50 μM): 70 ± 3%

SMILES: COc1cc2c(cc1OC)CN(Cc1cccc(O)c1O)CC2 [Compound 18, 2-(2,3-Dihydroxybenzyl)-6,7-dimethoxy-1,2,3,4-tetrahydroisoquinolinium chloride]
- inhibition at 50 µM [1, 4]: 1 ± 2%
- inhibition at 50 µM ([2]; final concentration of 50 μM): 4 ± 3%
- inhibition at 50 µM ([3]; final concentration of 50 μM): -8 ± 10%

SMILES: COc1cc2cc(-c3ccc4c(c3)OCO4)nc(C)c2cc1OC [Compound 21, 3-(Benzo[d][1,3]dioxol-5-yl)-6,7-dimethoxy-1-methylisoquinoline hydrochloride]
- inhibition at 50 µM [1, 4]: 13 ± 2%
- inhibition at 50 µM ([2]; final concentration of 50 μM): 12 ± 2%
- inhibition at 50 µM ([3]; final concentration of 50 μM): 18 ± 2%

SMILES: COc1cc2cc(-c3ccc4c(c3)OCO4)[n+](C)c(C)c2cc1OC [Compound 22, 3-(Benzo[d][1,3]dioxol-5-yl)-6,7-dimethoxy-1,2-dimethylisoquinolinium chloride]
- inhibition at 50 µM [1, 4]: 12 ± 2%
- inhibition at 50 µM ([2]; final concentration of 50 μM): 18 ± 2%
- inhibition at 50 µM ([3]; final concentration of 50 μM): 14 ± 3%

SMILES: COc1cc2cc(-c3cccc([N+](=O)[O-])c3)nc(C)c2cc1OC [Compound 23, 6,7-Dimethoxy-1-methyl-3-(3-nitrophenyl)isoquinolinium chloride]
- inhibition at 50 µM [1, 4]: 3 ± 4%
- inhibition at 50 µM ([2]; final concentration of 50 μM): 10 ± 4%
- inhibition at 50 µM ([3]; final concentration of 50 μM): 14 ± 3%

SMILES: COc1cc2cc(-c3cccc(C(C)=O)c3)[n+](C)c(C)c2cc1OC [Compound 25, 3-(3-Acetylphenyl)-6,7-dimethoxy-1,2-dimethylisoquinolinium chloride]
- inhibition at 50 µM [1, 4]: 20 ± 3%
- inhibition at 50 µM ([2]; final concentration of 50 μM): 29 ± 3%
- inhibition at 50 µM ([3]; final concentration of 50 μM): 7 ± 1%

SMILES: COc1cc2cc(-c3ccc(O)c(O)c3)[n+](C)c(C)c2cc1OC [Compound 27, 3-(3,4-Dihydroxyphenyl)-6,7-dimethoxy-1,2-dimethylisoquinolinium chloride]
- inhibition at 50 µM [1, 4]: 6 ± 2%
- inhibition at 50 µM ([2]; final concentration of 50 μM): 17 ± 1%
- inhibition at 50 µM ([3]; final concentration of 50 μM): 5 ± 2%

SMILES: COc1cc2cc(-c3cccc(N(S(C)(=O)=O)S(C)(=O)=O)c3)nc(C)c2cc1OC [Compound 29, N-(3-(6,7-Dimethoxy-1-methylisoquinolin-3-yl)phenyl)-N-(methylsulfonyl)methanesulfonamide hydrochloride]
- inhibition at 50 µM [1, 4]: -5 ± 2%
- inhibition at 50 µM ([2]; final concentration of 50 μM): -2 ± 2%
- inhibition at 50 µM ([3]; final concentration of 50 μM): 2 ± 4%

SMILES: COc1cc2cc(-c3cccc(NC(C)=O)c3)nc(C)c2cc1OC [Compound 31, N-(3-(6,7-Dimethoxy-1-methylisoquinolin-3-yl)phenyl)acetamide hydrochloride]
- inhibition at 50 µM [1, 4]: -1 ± 2%
- inhibition at 50 µM ([2]; final concentration of 50 μM): 10 ± 3%
- inhibition at 50 µM ([3]; final concentration of 50 μM): 10 ± 1%

SMILES: COc1cc2cc(-c3ccc(C(=O)OC(C)C)cc3)nc(C)c2cc1OC [Compound 32, Isopropyl 4-(6,7-dimethoxy-1-methylisoquinolin-3-yl)benzoate hydrochloride]
- inhibition at 50 µM [1, 4]: 4 ± 5%
- inhibition at 50 µM ([2]; final concentration of 50 μM): 10 ± 4%
- inhibition at 50 µM ([3]; final concentration of 50 μM): 2 ± 1%

SMILES: CNC(=O)c1ccc(-c2cc3cc(OC)c(OC)cc3c(C)n2)cc1 [Compound 34, 4-(6,7-Dimethoxy-1-methylisoquinolin-3-yl)-N-methylbenzamide]
- inhibition at 50 µM [1, 4]: -2 ± 3%
- inhibition at 50 µM ([2]; final concentration of 50 μM): 3 ± 3%
- inhibition at 50 µM ([3]; final concentration of 50 μM): 3 ± 5%
